In patent US20050065086A1, “Use of peptide-drug conjugation to reduce inter-subject variability of drug serum levels” (New River Pharmaceuticals Inc., priority 2002, published 2005):

What was measured:
[1] = test system: Caco-2 Cells; conditions: cited from earlier work
[2] = after oral administration (Gidal and coworkers); cited from earlier work
[3] = test system: Caco-2 Cells; conditions: unlike rapid and efficient in vivo absorption; cited from earlier work
[4] = physchem; format: physicochemical; conditions: pH 7.4, aqueous buffer
Excerpt: The enhanced absorption may be explained by the use of an additional transport mechanism, such as one of the peptide transporters.

NS(=O)(=O)c1cc2c(cc1Cl)N=CNS2(=O)=O [chlorothiazide]
permeability ([1]; Caco-2): low | absorption in humans [1]: low

NCC1(CC(=O)O)CCCCC1 [gabapentin]
intersubject CV for the AUC [2]: 22.5%

N[C@@H](Cc1ccc(O)c(O)c1)C(=O)O [L-dopa]
transport by Caco-2 cells [3]: do not transport L-dopa very well

N[C@@H](Cc1cc(I)c(Oc2cc(I)c(O)c(I)c2)c(I)c1)C(=O)O [T4, sodium, levothyroxine sodium]
solubility [4]: 6.9 µg/mL
